Measurements: patent publication US20100292231A1, “Indazole Compounds for Treating Inflammatory Disorders, Demyelinating Disorders and Cancers” (priority 2007, published 2010)
pEC50, pIC50: −log10 of the molar value.

Tests used:
FLT3 = target: T1, FLT3 (Homo sapiens, UniProt P36888); assay: SelectScreen FLT3 kinase dose response assay; assay type: biochemical; conditions: ATP 100 micromolar; for pEC50: dose response, 4 parameter Hill equation, read-out: FLT3 Inhibition EC50
T1 construct: purchased Invitrogen (SelectScreen platform)
T1 sequence (P36888 27-993): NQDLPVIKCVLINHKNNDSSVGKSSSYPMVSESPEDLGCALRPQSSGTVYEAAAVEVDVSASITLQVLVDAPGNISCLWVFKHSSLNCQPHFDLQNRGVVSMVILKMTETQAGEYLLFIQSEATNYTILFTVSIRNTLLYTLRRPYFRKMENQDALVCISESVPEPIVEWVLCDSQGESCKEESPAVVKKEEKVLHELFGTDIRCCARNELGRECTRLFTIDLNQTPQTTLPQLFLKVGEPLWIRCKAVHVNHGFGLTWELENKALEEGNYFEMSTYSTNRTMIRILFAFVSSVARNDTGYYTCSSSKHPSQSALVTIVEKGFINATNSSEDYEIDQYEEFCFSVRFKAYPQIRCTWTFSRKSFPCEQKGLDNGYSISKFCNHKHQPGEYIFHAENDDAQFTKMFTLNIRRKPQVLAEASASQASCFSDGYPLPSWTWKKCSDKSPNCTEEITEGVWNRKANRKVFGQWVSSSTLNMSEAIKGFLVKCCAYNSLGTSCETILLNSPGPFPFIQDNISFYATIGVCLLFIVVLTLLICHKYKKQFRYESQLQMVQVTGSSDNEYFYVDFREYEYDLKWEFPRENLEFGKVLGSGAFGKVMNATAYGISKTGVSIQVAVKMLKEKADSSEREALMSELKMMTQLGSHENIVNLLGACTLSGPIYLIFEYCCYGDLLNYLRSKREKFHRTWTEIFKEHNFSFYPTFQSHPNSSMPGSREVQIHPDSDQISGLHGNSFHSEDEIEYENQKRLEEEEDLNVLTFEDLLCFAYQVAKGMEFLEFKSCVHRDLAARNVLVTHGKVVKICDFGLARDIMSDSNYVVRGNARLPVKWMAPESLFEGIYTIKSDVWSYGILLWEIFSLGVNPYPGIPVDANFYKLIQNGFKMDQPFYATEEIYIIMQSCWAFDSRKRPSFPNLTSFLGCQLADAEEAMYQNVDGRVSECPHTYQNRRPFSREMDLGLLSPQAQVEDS
Description: The terms “IC50” and “EC50” are used interchangeably. As used herein, “EC50” refers to nMolar concentration at median percent inhibition determined by dose respose (DR) assay. As used herein, the term “E1000” refers to percent inhibition at 1000 nMolar determined by assay.
Testing of the compounds described in this invention was carried out using the SelectScreen™ platform from Invitrogen, Inc. (Carlsbad. Calif., USA) and the details of its performance are readily viewed via the web by linking to: http://www.invitrogen.com/downloads/SelectScrn_Brochure.pdf.
Briefly, the approach is based on treating each specific kinase with a unique substrate and optical reporter system in the presence of ATP at 100 micromolar. In controls, the substrate is phosphorylated and a baseline optimal response is recorded.
The compounds were then re-tested by adding graded amounts of putative inhibitor which were added in 5 separate increments to generate a dose response curve. The latter is obtained by fitting to a 4 parameter Hill equation, a sigmoid saturation equation.
For the compounds of this invention, the experimental conditions were as follows. The 2× FLT3/Tyr 02 peptide mixture was prepared in 50 mM HEPES pH 7.5, 0.01 BRIJ-35, 10 mM MgCl2, 1 mM EGTA. The final 10 uL kinase reaction consists of 0.6-76.0 ng FLT3 and 2 uM Tyr 02 peptide in 50 mM HEPES pH 7.5, 0.01% BRIJ-35, 10 mM MgCl2, 1 mM EGTA. After 1 hour kinase reaction incubation, 5 uL of a 1:64 dilution of development reagent A was added.

[1] = test system: Raw264.7 (murine macrophage-like cells); assay: sulforhodamine B (SRB) cytotoxicity assay; assay type: cell-based; conditions: Mus musculus, RAW264.7, 144 h; 25 μM highest concentration, diluted 1:5; 6 days; read-out: IC50 Measured Against Raw264.7 Cell Line

| inhibition at 1 µM (FLT3; 1000 nMolar compound, read-out: FLT3 Inhibition E1000 (percent inhibition at 1000 nMolar)) [%] | pEC50 (FLT3) | FLT3 Inhibition E1000 (percent inhibition at 1000 nMolar) (FLT3; 1000 nMolar compound) [%] | SMILES | pIC50 [1] |
| --- | --- | --- | --- | --- |
| 47 | 5.88 |  | O=c1c2c(F)ccc3ncn(c4ccc5[nH]ncc5c14)c32 [(XVIII)] |  |
|  | 7.42 | 93 | Cc1nc2cc3nc(-c4cccs4)cnc3cc2n1C [AGL-2043, reference compound] |  |
|  | 7.59 | 95 | c1ccc(-c2n[nH]c3c2oc2ccccc23)cc1 [GTP-14564, reference compound] |  |
|  |  |  | CCN(CC)CCNC(=O)c1c(C)[nH]c(/C=C2\C(=O)Nc3ccc(F)cc32)c1C [Sunitinib, sunitinib, reference compound] | 6.12 |
